Key:
[1] = system: Ear Edema Caused By Tetradecanoylphorbol Acetate; assay: Inhibition of Ear Edema Caused by Tetradecanoylphorbol Acetate (II), Table 7; type: in vivo, CF-1 Mice; settings: i.p., 3 h
Description: Inhibition of Ear Edema Caused by Tetradecanoylphorbol Acetate (II)
CF-1 Mice, 25-30 g body weight, six animals per group were used. Test compounds were administered intraperitoneally or topically as follows. For intraperitoneal administration, the test compound was dissolved in dimethyl sulfoxide or 0.5% methylcellulose and 100 microliters was injected 30 minutes prior to irritant (100 mg/kg, i.p.). […] A solution of the irritant, tetradecanoylphorbol acetate, 200 μg/mL, was added to the surface of the ear, 5 μL to the upper surface and 5 μL to the lower surface. After three hours, the thickness of the ear was measured to 0.01 mm by a micrometer with loose drag, positioned at the lateral-most edge of the mid-point of the pinna. Data were calculated as the inhibition of increased ear thickness compared to control animals receiving only the irritant.

[2] = system: Ear Edema Caused by Arachidonic Acid; assay: Inhibition of Ear Edema Caused by Arachidonic Acid (II), Table 8; type: in vivo, CF-1 mice; settings: i.p., sixty minutes
Description: Inhibition of Ear Edema Caused by Arachidonic Acid (II)
CF-1 mice, 25-30 g body weight, six animals per group, were used. The requisite amount of the test compound was dissolved is dimethyl sulfoxide or 0.5% methylcellulose and 100 μL of the solution was injected intraperitoneally 30 minutes prior to the administration of 100 mg/kg of arachidponic acid. A solution of this irritant, b 100 mg/mL in ethanol, was applied to the surface of the ear, 5 μL to the upper surface and 5 μL to the lower surface. After sixty minutes, the thickness of the ear was measured to 0.01 mm by a micrometer with the loose drag positioned at the lateral-most edge of the mid-point of the pinna. Data were calculated as the percent inhibityion by the test compound of increased ear thickness compared to control animals recieveing only the irritant.

[3] = system: Ear Edema Caused by Xylene; assay: Inhibition of Ear Edema Caused by Xylene (II), Table 9; type: in vivo, CF-1 mice; settings: i.p., 2 h
Description: Inhibition of Ear Edema Caused by Xylene (II)
CF-1 mice, 25-30 g body weight, six animals per group, were used. The requisite amount of the test compound was dissolved is dimethyl sulfoxide or 0.5% methylcellulose and 100 μL of the solution was injected intraperitoneally 30 minutes prior to the administration the irritant. The irritant xylene was applied to the surface of the ear, 20 μL to the upper surface and 20 μL to the lower surface, After two hours, the thickness of the ear was measured to 0.01 mm by a micrometer with the loose drag positioned at the lateral-most edge of the mid-point of the pinna. Data were calculated as the percent inhibition by the test compound of increased ear thickness compared to control animals receiving only the irritant.

[4] = system: Ear Edema Caused by Oxazolone; assay: Inhibition of Ear Edema Caused by Oxazolone (II), Table 10; type: in vivo, CF-1 mice; settings: i.p., 24 h
Description: Inhibition of Ear Edema Caused by Oxazolone (II)
CF-1 mice, 25-30 g body weight, five to six animals per group were used. The mice were sensitized to the irritant two weeks prior to the test by dribbling 100 μL of a 3% solution of oxazolone in acetone onto the abdominal skin of the animal. Test compounds were administered intraperitoneally as follows. […] The irritant, 3% oxazolone in acetone, was added to the surface of the ear, 5 μL added to the upper surface and 5 μL added to the lower surface. After twenty four hours, the thickness of the ear was measured to 0.01 mm by a micrometer with loose drag, positioned at the lateral-most edge of the mid-point of the pinna. Data were calculated as the inhibition of increased ear thickness compared to control animals' receiving only the irritant.

SMILES | % Inhibition Intraperitoneal ([1]; 10 mg/kg) [%] | % Inhibition Intraperitoneal ([1]; 30 mg/kg) [%] | % Inhibition Intraperitoneal ([1]; 100 mg/kg) [%] | % Inhibition Intraperitoneal ([2]; 10 mg/kg) [%] | % Inhibition Intraperitoneal ([2]; 30 mg/kg) [%] | % Inhibition Intraperitoneal ([2]; 100 mg/kg) [%] | % Inhibition ([3]; 10 mg/kg) [%] | % Inhibition ([3]; 30 mg/kg) [%] | % Inhibition ([3]; 100 mg/kg) [%] | % Inhibition Intraperitoneal ([4]; 10 mg/kg) [%] | % Inhibition Intraperitoneal ([4]; 30 mg/kg) [%] | % Inhibition Intraperitoneal ([4]; 100 mg/kg) [%]
Cc1cccc2c1-c1ccccc1C2COC(=O)N[C@@H](CC(C)C)C(=O)O (stereo partly drawn) [NPC 15325, N-{[9H-(4-Methylfluoren-9-yl)methoxy]carbonyl}-L-leucine] | 36 | 11 | 82 | 52 | 63 | 100 | 16 | 25 | 78 | 22 | 24 | 49
CCOC(=O)[C@H](CC(C)C)NC(=O)OCC1c2ccccc2-c2ccccc21 [NPC 15327, N-[(9H-Fluoren-9-ylmethoxy)carbonyl]-L-leucine ethyl ester] | 37 | 64 | 77 | – | – | – | 18 | 8 | 19 | – | – | –
CC(C)C[C@H](NC(=O)OCC1c2ccccc2-c2ccccc21)C(=O)OCc1ccccc1 [NPC 15328, N-[(9H-Fluoren-9-ylmethoxy)carbonyl]-L-leucine benzyl ester] | 49 | 47 | 62 | – | – | – | 19 | 29 | 13 | – | – | –
CCCC[C@H](NC(=O)CCC1c2ccccc2-c2ccccc21)C(=O)O [NPC 15894, N-[3-(9H-Fluoren-9-yl)propionyl]-L-norleucine, quarter hydrate] | 11 | 0 | 68 | 22 | 40 | 60 | 0 | 0 | 34 | 29 | 14 | 35
O=C(CCC1c2ccccc2-c2ccccc21)N[C@@H](CCc1ccccc1)C(=O)O [NPC 15895, N-[3-(9H-Fluoren-9-yl)propionyl]-L-Homophenylalanine, quarter hydrate] | 68 | 71 | 67 | 14 | 26 | 52 | 0 | 0 | 51 | 4 | 12 | 71
O=C(CCC1c2ccccc2-c2ccccc21)N[C@@H](Cc1ccccc1)C(=O)O [NPC 15896, N-[3-(9H-Fluoren-9-yl)propionyl]-L-Phenylalanine] | 0 | 0 | 84 | 16 | 24 | 72 | 28 | 24 | 21 | – | – | –
Cc1cccc2c1-c1ccccc1C2COC(=O)N[C@H](C(=O)O)C(C)(C)C (stereo partly drawn) [NPC 15904, N-{[9H-(4-Methylfluoren-9-yl)methoxy]carbonyl}-L-tert-leucine] | 16 | 0 | 43 | 19 | 54 | 79 | 0 | 10 | 68 | 21 | 54 | 79
CCCC[C@H](NC(=O)OCC1c2ccccc2-c2cccc(C)c21)C(=O)O (stereo partly drawn) [NPC 15951, N-{[9H-(1-Methylfluoren-9-yl)methoxy]carbonyl}-L-norleucine] | 41 | 39 | 70 | 11 | 18 | 56 | 40 | 62 | 62 | 33 | 23 | 49
Cc1cccc2c1C(COC(=O)N[C@H](C(=O)O)C(C)(C)C)c1ccccc1-2 (stereo partly drawn) [NPC 15952, N-{[9H-(1-Methylfluoren-9-yl)methoxy]carbonyl}-L-tert-leucine] | 27 | 75 | 67 | 43 | 47 | 50 | 29 | 39 | 43 | 21 | 24 | 72
Cc1cccc2c1-c1ccccc1C2COC(=O)N[C@@H](CCc1ccccc1)C(=O)O (stereo partly drawn) [NPC 15961, N-{[9H-(4-Methylfluoren-9-yl)methoxy]carbonyl}-L-homophenylalanine] | – | – | – | – | – | – | 41 | 41 | 57 | 29 | 23 | 92
COc1ccc2c(c1)C(CCC(=O)N[C@@H](CC(C)C)C(=O)O)c1ccccc1-2 (stereo partly drawn) [NPC 15968, N-{9H-[3-(2-Methoxyfluoren-9-yl)propionyl]}-L-leucine] | – | – | – | – | – | – | 23 | 62 | 57 | 24 | 24 | 66
Cc1cccc2c1C(CCC(=O)N[C@@H](CCc1ccccc1)C(=O)O)c1ccccc1-2 (stereo partly drawn) [NPC 15974, N-{9H-[3-(1-Methylfluoren-9-yl)propionyl]}-L-homophenylalanine] | – | – | – | – | – | – | 48 | 57 | 59 | 0 | 23 | 48
Cc1cccc2c1-c1ccccc1C2CCC(=O)N[C@@H](CC(C)C)C(=O)O (stereo partly drawn) [NPC 15975, N-{9H-[3-(4-Methylfluoren-9-yl)propionyl]}-L-leucine quarter hydrate] | – | – | – | – | – | – | 51 | 22 | 49 | 36 | 19 | 73
CCCC[C@H](NC(=O)CCC1c2ccccc2-c2cccc(C)c21)C(=O)O (stereo partly drawn) [NPC 15976, N-[9H-[3-(1-Methylfluoren-9-yl)propionyl]}-L-norleucine, quarter hydrate] | – | – | – | – | – | – | 59 | 33 | 62 | 10 | 8 | 73

From patent US5079260A, “Method for treating inflammation and compounds and compositions suitable for use therein” (Nova Pharmaceutical Corporation, priority 1990, dated 1992)
